Data as given in patent publication US20150307460A1, “Substituted Triazoles and Imidazoles and Their Use as Fungicides” (BASF SE, priority 2012, published 2015).

Assays:
Botrytis cinerea = experiment: Microtiterplate test: activity against the grey mold Botrytis cinerea (Botrci), also comparison test CM1; type: cell-based; details: 7 days after inoculation, control = 100%
Septoria tritici = experiment: Microtest: activity against leaf blotch on wheat caused by Septoria tritici (Septtr), also comparison test CM3; type: cell-based; details: 7 days after inoculation, control = 100%
Phytophthora infestans = type: cell-based; details: 7 days after inoculation, control = 100%
Puccinia recondita = experiment: Green house CG1: preventative control of brown rust on wheat caused by Puccinia recondita (Puccrt P1); type: in vivo; details: 150 ppm spray, wheat seedlings, % diseased leaf area, untreated control 90
Procedure: The spray solutions were prepared in several steps: The stock solution were prepared: a mixture of acetone and/or dimethylsulfoxide and the wetting agent/emulsifier Wettol, which is based on ethoxylated alkylphenoles, in a relation (volume) solvent-emulsifier of 99 to 1 was added to 25 mg of the compound to give a total of 5 ml. Water was then added to total volume of 100 ml. This stock solution was diluted with the described solvent-emulsifier-water mixture to the given concentration. CG1 Preventative Control of Brown Rust on Wheat Caused by Puccinia recondita (Puccrt P1) The first two developed leaves of pot-grown wheat seedling were sprayed to run-off with an aqueous suspension, containing the concentration of active ingredient or their mixture as described below. The next day the plants were inoculated with spores of Puccinia recondita. […] The extent of fungal attack on the leaves was visually assessed as % diseased leaf area.

SMILES: OC1(c2cccc(-c3ccc(Cl)cc3)c2)CCCCC1n1cncn1 (stereo not drawn) [Compound I-19]
- CM1 Growth (%) at 8 ppm Botrci (Botrytis cinerea): 0%
- CM3 Growth (%) at 8 ppm Septtr (Septoria tritici): 1%
- CM2 Growth (%) at 31 ppm Phytin (Phytophthora infestans): 73%

SMILES: OC1(c2ccc(F)cc2)CCCCC1n1cncn1 (stereo not drawn) [Example No. 28 of EP 0 152 031, reference compound]
- CM1 Growth (%) at 8 ppm Botrci (Botrytis cinerea): 40%
- CM3 Growth (%) at 8 ppm Septtr (Septoria tritici): 83%
- CM2 Growth (%) at 31 ppm Phytin (Phytophthora infestans): 93%

SMILES: OC1(c2ccccc2)CCCCC1n1cncn1 (stereo not drawn) [Example No. 25 of EP 0 152 031, reference compound]
- CM1 Growth (%) at 8 ppm Botrci (Botrytis cinerea): 70%
- CM3 Growth (%) at 8 ppm Septtr (Septoria tritici): 80%
- CM2 Growth (%) at 31 ppm Phytin (Phytophthora infestans): 94%

SMILES: OC1(c2ccc(-c3ccc(Cl)cc3)cc2)CCCCC1n1cncn1 (stereo not drawn) [Compound I-15]
- CM1 Growth (%) at 8 ppm Botrci (Botrytis cinerea): 0%
- CM3 Growth (%) at 8 ppm Septtr (Septoria tritici): 2%

SMILES: OC1(c2ccc(-c3ccc(F)cc3)cc2)CCCCCC1n1cncn1 (stereo not drawn)
- CG1 Disease (%) at 150 ppm Puccrt P1 (Puccinia recondita): 10%

SMILES: OC1(c2ccc(Cl)cc2)CCCCC1n1cncn1 (stereo not drawn) [reference compound]
- CM3 Growth (%) at 8 ppm Septtr (Septoria tritici): 52%
- CM2 Growth (%) at 31 ppm Phytin (Phytophthora infestans): 78%

SMILES: OC1(c2ccc(Oc3ccc(Cl)cc3)cc2)CCCCC1n1cncn1 (stereo not drawn) [Compound I-11, 1-[4-(4-chlorophenoxyl)phenyl]-2-(1,2,4-triazol-1-yl)cyclohexanol]
- CM1 Growth (%) at 8 ppm Botrci (Botrytis cinerea): 0%
- CM3 Growth (%) at 8 ppm Septtr (Septoria tritici): 0%
- CM2 Growth (%) at 31 ppm Phytin (Phytophthora infestans): 57%

SMILES: OC1(c2ccc(-c3ccccc3)cc2)CCCCC1n1cncn1 (stereo not drawn) [Compound I-12]
- CM1 Growth (%) at 8 ppm Botrci (Botrytis cinerea): 0%
- CM3 Growth (%) at 8 ppm Septtr (Septoria tritici): 1%
- CM2 Growth (%) at 31 ppm Phytin (Phytophthora infestans): 41%

SMILES: OC1(c2ccc(Cl)cc2)CCCCCC1n1cncn1 (stereo not drawn) [reference compound]
- CG1 Disease (%) at 150 ppm Puccrt P1 (Puccinia recondita): 30%
